# Earlier results in PubChem BioAssay AID1259409 (Chemical Carcinogenesis Research Information System (CCRIS), 2018).
# Test system: rodent chemically induced tumor inhibition, incidence and multiplicity
# Assay: CCRIS tumor inhibitor studies
# Conditions: Species: RAT
SMILES,"tumour outcome (control, treated, inhibition, significance) (Carcinogen: AZOXYMETHANE, 25843-45-2, Dose [Inhibitor]: 0, 2% IN DIET FOR 13 WK BEGINNING 36 WK POST LAST CARCINOGEN DOSE (STUDY DURATION: 49 WK), Route [Inhibitor]: ORAL, Strain/Sex: F344/MALE, Target Tissue: Type of Lesion: COLON: ADENOCARCINOMA, Dose [Carcinogen]: 12 MG/KG BW IN 0.9% SALINE TWICE, Promoter: CHOLIC ACID, 81-25-4)","tumour outcome (control, treated, inhibition, significance) (Carcinogen: AZOXYMETHANE, 25843-45-2, Dose [Inhibitor]: 0, 2% IN DIET FOR 13 WK BEGINNING 36 WK POST LAST CARCINOGEN DOSE (STUDY DURATION: 49 WK), Route [Inhibitor]: ORAL, Strain/Sex: F344/MALE, Target Tissue: Type of Lesion: COLON: ADENOMA, Dose [Carcinogen]: 12 MG/KG BW IN 0.9% SALINE TWICE, Promoter: CHOLIC ACID, 81-25-4)","tumour outcome (control, treated, inhibition, significance) (Carcinogen: AZOXYMETHANE, 25843-45-2, Dose [Inhibitor]: 0, 2% IN DIET FOR 13 WK BEGINNING 36 WK POST LAST CARCINOGEN DOSE (STUDY DURATION: 49 WK), Route [Inhibitor]: ORAL, Strain/Sex: F344/MALE, Target Tissue: Type of Lesion: SMALL INTESTINE: ADENOCARCINOMA, Dose [Carcinogen]: 12 MG/KG BW IN 0.9% SALINE TWICE, Promoter: CHOLIC ACID, 81-25-4)","tumour outcome (control, treated, inhibition, significance) (Carcinogen: AZOXYMETHANE, 25843-45-2, Dose [Inhibitor]: 0, 2% IN DIET FOR 13 WK BEGINNING 36 WK POST LAST CARCINOGEN DOSE (STUDY DURATION: 49 WK), Route [Inhibitor]: ORAL, Strain/Sex: F344/MALE, Target Tissue: Type of Lesion: SMALL INTESTINE: ADENOMA, Dose [Carcinogen]: 12 MG/KG BW IN 0.9% SALINE TWICE, Promoter: CHOLIC ACID, 81-25-4)","tumour outcome (control, treated, inhibition, significance) (Carcinogen: AZOXYMETHANE, 25843-45-2, Dose [Inhibitor]: 0, 2% IN DIET FOR 34 WK BEGINNING 1 WK POST LAST CARCINOGEN DOSE (STUDY DURATION: 49 WK), Route [Inhibitor]: ORAL, Strain/Sex: F344/MALE, Target Tissue: Type of Lesion: COLON: ADENOCARCINOMA, Dose [Carcinogen]: 12 MG/KG BW IN 0.9% SALINE TWICE, Promoter: CHOLIC ACID, 81-25-4)","tumour outcome (control, treated, inhibition, significance) (Carcinogen: AZOXYMETHANE, 25843-45-2, Dose [Inhibitor]: 0, 2% IN DIET FOR 34 WK BEGINNING 1 WK POST LAST CARCINOGEN DOSE (STUDY DURATION: 49 WK), Route [Inhibitor]: ORAL, Strain/Sex: F344/MALE, Target Tissue: Type of Lesion: COLON: ADENOMA, Dose [Carcinogen]: 12 MG/KG BW IN 0.9% SALINE TWICE, Promoter: CHOLIC ACID, 81-25-4)","tumour outcome (control, treated, inhibition, significance) (Carcinogen: AZOXYMETHANE, 25843-45-2, Dose [Inhibitor]: 0, 2% IN DIET FOR 34 WK BEGINNING 1 WK POST LAST CARCINOGEN DOSE (STUDY DURATION: 49 WK), Route [Inhibitor]: ORAL, Strain/Sex: F344/MALE, Target Tissue: Type of Lesion: SMALL INTESTINE: ADENOCARCINOMA, Dose [Carcinogen]: 12 MG/KG BW IN 0.9% SALINE TWICE, Promoter: CHOLIC ACID, 81-25-4)","tumour outcome (control, treated, inhibition, significance) (Carcinogen: AZOXYMETHANE, 25843-45-2, Dose [Inhibitor]: 0, 2% IN DIET FOR 34 WK BEGINNING 1 WK POST LAST CARCINOGEN DOSE (STUDY DURATION: 49 WK), Route [Inhibitor]: ORAL, Strain/Sex: F344/MALE, Target Tissue: Type of Lesion: SMALL INTESTINE: ADENOMA, Dose [Carcinogen]: 12 MG/KG BW IN 0.9% SALINE TWICE, Promoter: CHOLIC ACID, 81-25-4)","tumour outcome (control, treated, inhibition, significance) (Carcinogen: N-BUTYL-N-(4-HYDROXYBUTYL)NITROSAMINE, 3817-11-6, Dose [Inhibitor]: 5% DIET DAILY FOR 34 WK STARTING AFTER CARCINOGEN TREATMENT (STUDY DURATION: 38 WK), Route [Inhibitor]: ORAL, Strain/Sex: F344/MALE, Target Tissue: Type of Lesion: URINARY BLADDER: PAPILLOMA, Dose [Carcinogen]: 0.01% IN DRINKING WATER FOR 4 WK, Promoter: NONE USED)","tumour outcome (control, treated, inhibition, significance) (Carcinogen: N-METHYL-N'-NITRO-N-NITROSOGUANIDINE, 70-25-7, Dose [Inhibitor]: 0, 7.5% IN DIET FOR FIRST 20 WK THEN BASAL DIET FOR DURATION OF STUDY (STUDY DURATION: 40 WK), Route [Inhibitor]: ORAL, Strain/Sex: WISTAR/MALE, Target Tissue: Type of Lesion: GLANDULAR STOMACH: ADENOCARCINOMA, Dose [Carcinogen]: 100 MG/L IN DRINKING WATER FOR FIRST 20 WK, Promoter: NONE USED)","tumour outcome (control, treated, inhibition, significance) (Carcinogen: N-NITROSOMETHYLBENZYLAMINE, 937-40-6, Dose [Inhibitor]: 0, 20000 PPM IN DIET FOR DURATION OF STUDY BEGINNING 1 WK POST CARCINOGEN TREATMENT (STUDY DURATION: 25 WK), Route [Inhibitor]: ORAL, Strain/Sex: F344/MALE, Target Tissue: Type of Lesion: ESOPHAGUS: TUMOR, Dose [Carcinogen]: 1 MG/KG 3/WK FOR 5 WK, Promoter: NONE USED)","tumour outcome (control, treated, inhibition, significance) (Carcinogen: N-NITROSOMETHYLBENZYLAMINE, 937-40-6, Dose [Inhibitor]: 0, 20000 PPM IN DIET FOR DURATION OF STUDY BEGINNING 2 WK PRIOR TO CARCINOGEN TREATMENT (STUDY DURATION: 25 WK), Route [Inhibitor]: ORAL, Strain/Sex: F344/MALE, Target Tissue: Type of Lesion: ESOPHAGUS: TUMOR, Dose [Carcinogen]: 1 MG/KG 3/WK FOR 5 WK, Promoter: NONE USED)","tumour outcome (control, treated, inhibition, significance) (Dose [Inhibitor]: 0, 6.2 MG, 2 INJECTIONS ONCE INTO EACH POLE OF RIGHT KIDNEY ADMINISTERED WITH CARCINOGEN (STUDY DURATION: 109 WK), Route [Inhibitor]: INTRARENAL, Strain/Sex: F344/NCR/MALE, Target Tissue: Type of Lesion: KIDNEY: TUMOR, Dose [Carcinogen]: 5 MG, 2 INJECTIONS ONCE INTO EACH POLE OF RIGHT KIDNEY, Promoter: NONE USED)","tumour outcome (control, treated, inhibition, significance) (Dose [Inhibitor]: 0, 7.5 UMOL (MG) INJECTED WITH CARCINOGEN INTO THIGH OF BOTH HIND LIMBS (STUDY DURATION: 79 WK), Route [Inhibitor]: INTRAMUSCULAR, Strain/Sex: F344/MALE, Target Tissue: Type of Lesion: INJECTION SITE: SARCOMA, Dose [Carcinogen]: 2.5 MG PER SITE INJECTED INTO THIGH OF BOTH HIND LIMBS ONCE, Promoter: NONE USED)","tumour outcome (control, treated, inhibition, significance) (Dose [Inhibitor]: 0, 15.5 UMOL (MG) INJECTED WITH CARCINOGEN INTO THIGH OF BOTH HIND LIMBS (STUDY DURATION: 79 WK), Route [Inhibitor]: INTRAMUSCULAR, Strain/Sex: F344/MALE, Target Tissue: Type of Lesion: INJECTION SITE: SARCOMA, Dose [Carcinogen]: 2.5 MG PER SITE INJECTED INTO THIGH OF BOTH HIND LIMBS ONCE, Promoter: NONE USED)","tumour outcome (control, treated, inhibition, significance) (Dose [Inhibitor]: 0, 30 UMOL (MG) INJECTED WITH CARCINOGEN INTO THIGH OF BOTH HIND LIMBS (STUDY DURATION: 79 WK), Route [Inhibitor]: INTRAMUSCULAR, Strain/Sex: F344/MALE, Target Tissue: Type of Lesion: INJECTION SITE: SARCOMA, Dose [Carcinogen]: 2.5 MG PER SITE INJECTED INTO THIGH OF BOTH HIND LIMBS ONCE, Promoter: NONE USED)","tumour outcome (control, treated, inhibition, significance) (Dose [Inhibitor]: 0, 60 UMOL (MG) INJECTED WITH CARCINOGEN INTO THIGH OF BOTH HIND LIMBS (STUDY DURATION: 79 WK), Route [Inhibitor]: INTRAMUSCULAR, Strain/Sex: F344/MALE, Target Tissue: Type of Lesion: INJECTION SITE: SARCOMA, Dose [Carcinogen]: 2.5 MG PER SITE INJECTED INTO THIGH OF BOTH HIND LIMBS ONCE, Promoter: NONE USED)","tumour outcome (control, treated, inhibition, significance) (Dose [Inhibitor]: 0, 120 UMOL (MG) INJECTED INTO NAPE OF NECK (STUDY DURATION: 79 WK), Route [Inhibitor]: SUBCUTANEOUS, Strain/Sex: F344/MALE, Target Tissue: Type of Lesion: INJECTION SITE: SARCOMA, Dose [Carcinogen]: 2.5 MG PER SITE INJECTED INTO THIGH OF BOTH HIND LIMBS, Promoter: NONE USED)","tumour outcome (control, treated, inhibition, significance) (Dose [Inhibitor]: 0, 120 UMOL (MG) INJECTED WITH CARCINOGEN INTO THIGH OF BOTH HIND LIMBS (STUDY DURATION: 79 WK), Route [Inhibitor]: INTRAMUSCULAR, Strain/Sex: F344/MALE, Target Tissue: Type of Lesion: INJECTION SITE: SARCOMA, Dose [Carcinogen]: 2.5 MG PER SITE INJECTED INTO THIGH OF BOTH HIND LIMBS, Promoter: NONE USED)","tumour outcome (control, treated, inhibition, significance) (Carcinogen: N-BUTYL-N-(4-HYDROXYBUTYL)NITROSAMINE, 3817-11-6, Dose [Inhibitor]: 0.35% DIET DAILY FOR 34 WK STARTING AFTER CARCINOGEN TREATMENT (STUDY DURATION: 38 WK), Route [Inhibitor]: ORAL, Strain/Sex: F344/MALE, Target Tissue: Type of Lesion: URINARY BLADDER: PAPILLOMA, Dose [Carcinogen]: 0.01% IN DRINKING WATER FOR 4 WK, Promoter: NONE USED)"
O=C(O)O,"26%, 31%, -19%, not significant","81%, 89%, -10%, not significant","23%, 14%, 39%, not significant","17%, 14%, 18%, not significant","26%, 18%, 31%, not significant","81%, 59%, 27%, p<0.05","23%, 16%, 30%, not significant","17%, 7%, 59%, not significant","33%, 37%, -12%, not significant","3/20 (15%), 3/19 (16%), -7%, not significant","15/15 (100%), 14/15 (93%), 7%, not significant","15/15 (100%), 13/15 (87%), 13%, not significant","25/40 (63%), 4/20 (20%), 68%, not calculated","100%, 100%, 0%, not significant","100%, 95%, 5%, not significant","100%, 55%, 45%, not calculated","100%, 60%, 40%, not significant","100%, 100%, 0%, not significant","100%, 55%, 45%, not calculated",
CC(=O)Nc1nnc(S(N)(=O)=O)s1,,,,,,,,,,,,,,,,,,,,"33%, 15%, 55%, not significant"
